The test system of this experiment is KB. The experiment is described as follows: Cytotoxicity against human KB cells. In kind it is functional, cell-based.

*1 amine or outer side, *2 acyl side, *3 side chain or, on linkers, in order; H or OH if unused. Where a SMILES comes first, the peptide text is derived from it. [ ]: non-standard residue; d: D form. Ahppa(3S,4S) = O=C(C[C@H](O)[C@H](Cc1ccccc1)N[*:1])[*:2]; dNMeF = CN[C@H](Cc1ccccc1)C(=O)O; NMeQ = CN[C@@H](CCC(N)=O)C(=O)O; Lac = C[C@H](O)C(=O)O

With `COC(=O)[C@@H]1CCCN1C(=O)[C@@H](Cc1ccccc1)N(C)C(=O)[C@H](C)NC(=O)[C@H](CC(C)C)NC(=O)C[C@H](O)[C@H](Cc1ccccc1)NC(=O)[C@H](CCC(N)=O)N(C)C(=O)[C@@H](NC(=O)[C@H](C)O)C(C)C` [TASIAMIDE B] (H-[Lac]V[NMeQ][Ahppa(3S,4S)]LA[dNMeF]P-OMe), the half-inhibitory concentration (IC50) stood at 800 nM.
